Measured values published in paper PMC10584170, “Machine learning-based phenotypic imaging to characterise the targetable biology of Plasmodium falciparum male gametocytes for the development of transmission-blocking antimalarials” (PLOS Pathogens, 2023).
Like-named read-outs stand apart in the source and are kept apart here.

Columns and labels:
[1] = tested on: HepG2 cells; assay: HepG2 cytotoxicity counter-screen; conditions: cytotoxic activity against HepG2 cells
[2] = tested on: P. falciparum female gametocytes; assay: P. falciparum Dual Gamete Formation Assay (PfDGFA), female readout (Pfs25-positive female gametes); type: cell-based, Plasmodium falciparum NF54; conditions: for Average inhibition female (%) / % inhibition female (individual replicates) R1 / % inhibition female (individual replicates) R3 / % inhibition female (individual replicates) R4 / inhibition at 2 µM: 24h preincubation with gametocytes; for Selectivity ratio F: HepG2 Tox50 versus female IC50; for IC50: PfDGFA, 24 h incubation with gametocytes before induction, female gamete readout, read-out: Female IC50; for HitlevelF: number of replicates with >50% inhibition in the female readout
In short: (§1)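 Day-14 NF54 gametocytes were incubated with compound for 24 h at 37°C under 1% O2/3% CO2/96% N2. Gametogenesis was triggered with ookinete medium (0.1 μM xanthurenic acid) plus Cy3-anti-Pfs25, and exflagellation was imaged by brightfield after cooling to 4°C then 28°C. Females were imaged by Pfs25 fluorescence 24 h later at 28°C.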

[3] = tested on: P. falciparum male gametocytes; assay: P. falciparum Dual Gamete Formation Assay (PfDGFA), male readout (exflagellation); type: cell-based, Plasmodium falciparum NF54; conditions: for Average inhibition male (%) / % inhibition male (individual replicates) R1 / % inhibition male (individual replicates) R3 / % inhibition male (individual replicates) R4 / inhibition at 2 µM: 24h preincubation with gametocytes; for Selectivity Ratio M: HepG2 Tox50 versus male IC50; for IC50: PfDGFA, 24 h incubation with gametocytes before induction, exflagellation readout, read-out: Male IC50; for HitlevelM: number of replicates with >50% inhibition in the male readout
In short: as §1

[4] = PfDGFA at 2µM, average of replicates

## CC(=NNC(=S)NCCc1ccccn1)c1ccccn1 [TCMDC-137895]
[1]
  Tox50: 1.15 µM
[2]; 2µM, average of replicates
  Average inhibition female (%): 79.8%
[2]; 2µM, replicate R1
  % inhibition female (individual replicates) R1: 58.7%
[2]; 2µM, replicate R3
  % inhibition female (individual replicates) R3: 98.6%
[2]; 2µM, replicate R4
  % inhibition female (individual replicates) R4: 74.6%
[2]
  Selectivity ratio F: 2.26
  IC50: 510 nM
[3]; 2µM, average of replicates
  Average inhibition male (%): 93.4%
[3]; 2µM, replicate R1
  % inhibition male (individual replicates) R1: 86.5%
[3]; 2µM, replicate R3
  % inhibition male (individual replicates) R3: 96.2%
[3]; 2µM, replicate R4
  % inhibition male (individual replicates) R4: 94.6%
[3]
  Selectivity Ratio M: 2.92
  IC50: 390 nM

## CN(CCCNCc1cccc2ccccc12)CCCNCc1cccc2ccccc12.Cl [TCMDC-137905]
[1]
  Tox50: 5.94 µM
[2]
  Selectivity ratio F: 4.08
  IC50: 1460 nM
[2]; [4]
  Average inhibition female (%): 42.5%
[2]; PfDGFA at 2µM, replicate R1
  % inhibition female (individual replicates) R1: 35.1%
[2]; PfDGFA at 2µM, replicate R3
  % inhibition female (individual replicates) R3: 30.8%
[2]; PfDGFA at 2µM, replicate R4
  % inhibition female (individual replicates) R4: 35.6%
[2]; 2µM
  HitlevelF: 1
[3]
  Selectivity Ratio M: 6.46
  IC50: 920 nM
[3]; [4]
  Average inhibition male (%): 87.5%
[3]; PfDGFA at 2µM, replicate R1
  % inhibition male (individual replicates) R1: 87.4%
[3]; PfDGFA at 2µM, replicate R3
  % inhibition male (individual replicates) R3: 74.8%
[3]; PfDGFA at 2µM, replicate R4
  % inhibition male (individual replicates) R4: 93.6%
[3]; 2µM
  HitlevelM: 4

## COCCCNC(=S)NN=C(C)c1ccccn1 [TCMDC-137907]
[1]
  Tox50: 0.48 µM
[2]
  Selectivity ratio F: 1.2
[2]; Plasmodium falciparum, 2µM, average of replicates, read-out: Average inhibition female (%)
  inhibition at 2 µM: 95.6%
[2]; Plasmodium falciparum, 2µM, replicate R1, read-out: % inhibition female (individual replicates) R1
  inhibition at 2 µM: 95.7%
[2]; Plasmodium falciparum, 2µM, replicate R2, read-out: % inhibition female (individual replicates) R2
  inhibition at 2 µM: 91.5%
[2]; Plasmodium falciparum, 2µM, replicate R3, read-out: % inhibition female (individual replicates) R3
  inhibition at 2 µM: 100%
[2]; Plasmodium falciparum, 2µM, replicate R4, read-out: % inhibition female (individual replicates) R4
  inhibition at 2 µM: 94.6%
[2]; Plasmodium falciparum
  IC50: 400 nM
[3]
  Selectivity Ratio M: 1.14
[3]; Plasmodium falciparum, 2µM, average of replicates, read-out: Average inhibition male (%)
  inhibition at 2 µM: 100%
[3]; Plasmodium falciparum, 2µM, replicate R1, read-out: % inhibition male (individual replicates) R1
  inhibition at 2 µM: 99.7%
[3]; Plasmodium falciparum, 2µM, replicate R2, read-out: % inhibition male (individual replicates) R2
  inhibition at 2 µM: 100%
[3]; Plasmodium falciparum, 2µM, replicate R3, read-out: % inhibition male (individual replicates) R3
  inhibition at 2 µM: 97.8%
[3]; Plasmodium falciparum, 2µM, replicate R4, read-out: % inhibition male (individual replicates) R4
  inhibition at 2 µM: 103%
[3]; Plasmodium falciparum
  IC50: 420 nM

## CN(CCCNCc1ccc2ccccc2c1)CCCNCc1ccc2ccccc2c1.Cl [TCMDC-137908]
[1]
  Tox50: 4.12 µM
[2]; 2µM, average of replicates
  Average inhibition female (%): 40.6%
[2]; 2µM, replicate R1
  % inhibition female (individual replicates) R1: 36.9%
[2]; 2µM, replicate R3
  % inhibition female (individual replicates) R3: 42.1%
[2]; 2µM, replicate R4
  % inhibition female (individual replicates) R4: 30.7%
[2]
  Selectivity ratio F: 3.92
  IC50: 1050 nM
[3]; 2µM, average of replicates
  Average inhibition male (%): 96.1%
[3]; 2µM, replicate R1
  % inhibition male (individual replicates) R1: 95.1%
[3]; 2µM, replicate R3
  % inhibition male (individual replicates) R3: 92.7%
[3]; 2µM, replicate R4
  % inhibition male (individual replicates) R4: 98.2%
[3]
  Selectivity Ratio M: 8.05
  IC50: 510 nM

## CCOc1cc(CNCCCCCCNCc2cc(OCC)c(OCC)c3ccccc23)c2ccccc2c1OCC.CS(=O)(=O)O [TCMDC-137939]
[1]
  Tox50: 2.02 µM
[2]
  Selectivity ratio F: 0.94
  IC50: 2160 nM
[2]; [4]
  Average inhibition female (%): 45.9%
[2]; PfDGFA at 2µM, replicate R1
  % inhibition female (individual replicates) R1: 31.3%
[2]; PfDGFA at 2µM, replicate R3
  % inhibition female (individual replicates) R3: 12.7%
[2]; PfDGFA at 2µM, replicate R4
  % inhibition female (individual replicates) R4: 67.3%
[2]; 2µM
  HitlevelF: 2
[3]
  Selectivity Ratio M: 1.34
  IC50: 1510 nM
[3]; [4]
  Average inhibition male (%): 69.9%
[3]; PfDGFA at 2µM, replicate R1
  % inhibition male (individual replicates) R1: 72.9%
[3]; PfDGFA at 2µM, replicate R3
  % inhibition male (individual replicates) R3: 51.6%
[3]; PfDGFA at 2µM, replicate R4
  % inhibition male (individual replicates) R4: 76.9%
[3]; 2µM
  HitlevelM: 4

## COc1cc2ccccc2cc1CCNCCCCNCCc1cc2ccccc2cc1OC.CS(=O)(=O)O [TCMDC-137944]
[1]
  Tox50: 3.94 µM
[2]; 2µM, average of replicates
  Average inhibition female (%): 77.7%
[2]; 2µM, replicate R1
  % inhibition female (individual replicates) R1: 77.0%
[2]; 2µM, replicate R3
  % inhibition female (individual replicates) R3: 80.9%
[2]; 2µM, replicate R4
  % inhibition female (individual replicates) R4: 77.1%
[2]
  Selectivity ratio F: 1.14
  IC50: 3470 nM
[3]; 2µM, average of replicates
  Average inhibition male (%): 96.6%
[3]; 2µM, replicate R1
  % inhibition male (individual replicates) R1: 97.3%
[3]; 2µM, replicate R3
  % inhibition male (individual replicates) R3: 93.0%
[3]; 2µM, replicate R4
  % inhibition male (individual replicates) R4: 97.4%
[3]
  Selectivity Ratio M: 3.14
  IC50: 1260 nM

## CCCOc1ccc(CCNCCCCNCCc2ccc(OCCC)c3ccccc23)c2ccccc12.CS(=O)(=O)O [TCMDC-137952]
[1]
  Tox50: 2.96 µM
[2]; 2µM, average of replicates
  Average inhibition female (%): 89.4%
[2]; 2µM, replicate R1
  % inhibition female (individual replicates) R1: 87.3%
[2]; 2µM, replicate R3
  % inhibition female (individual replicates) R3: 99.5%
[2]; 2µM, replicate R4
  % inhibition female (individual replicates) R4: 93.9%
[2]
  Selectivity ratio F: 2.17
  IC50: 1370 nM
[3]; 2µM, average of replicates
  Average inhibition male (%): 93.9%
[3]; 2µM, replicate R1
  % inhibition male (individual replicates) R1: 96.8%
[3]; 2µM, replicate R3
  % inhibition male (individual replicates) R3: 100.0%
[3]; 2µM, replicate R4
  % inhibition male (individual replicates) R4: 100.7%
[3]
  Selectivity Ratio M: 3.16
  IC50: 940 nM

## COc1ccc2c(OC)c(CNCCCCCCNCc3ccc4cc(OC)ccc4c3OC)ccc2c1.CS(=O)(=O)O [TCMDC-137953]
[1]
  Tox50: 3.73 µM
[2]
  Selectivity ratio F: 2.26
  IC50: 1650 nM
[2]; [4]
  Average inhibition female (%): 35.6%
[2]; PfDGFA at 2µM, replicate R1
  % inhibition female (individual replicates) R1: 27.7%
[2]; PfDGFA at 2µM, replicate R3
  % inhibition female (individual replicates) R3: 6.7%
[2]; PfDGFA at 2µM, replicate R4
  % inhibition female (individual replicates) R4: 49.3%
[2]; 2µM
  HitlevelF: 1
[3]
  Selectivity Ratio M: 2
  IC50: 1870 nM
[3]; [4]
  Average inhibition male (%): 70.9%
[3]; PfDGFA at 2µM, replicate R1
  % inhibition male (individual replicates) R1: 72.9%
[3]; PfDGFA at 2µM, replicate R3
  % inhibition male (individual replicates) R3: 42.7%
[3]; PfDGFA at 2µM, replicate R4
  % inhibition male (individual replicates) R4: 88.9%
[3]; 2µM
  HitlevelM: 3

## COc1ccc(CCNCCCCNCCc2ccc(OC)c3ccccc23)c2ccccc12.CS(=O)(=O)O [TCMDC-137961]
[1]
  Tox50: 3.73 µM
[2]; 2µM, average of replicates
  Average inhibition female (%): 83.6%
[2]; 2µM, replicate R1
  % inhibition female (individual replicates) R1: 91.7%
[2]; 2µM, replicate R3
  % inhibition female (individual replicates) R3: 93.4%
[2]; 2µM, replicate R4
  % inhibition female (individual replicates) R4: 91.7%
[2]
  Selectivity ratio F: 1.85
  IC50: 2020 nM
[3]; 2µM, average of replicates
  Average inhibition male (%): 90.0%
[3]; 2µM, replicate R1
  % inhibition male (individual replicates) R1: 98.7%
[3]; 2µM, replicate R3
  % inhibition male (individual replicates) R3: 95.1%
[3]; 2µM, replicate R4
  % inhibition male (individual replicates) R4: 92.4%
[3]
  Selectivity Ratio M: 3.28
  IC50: 1140 nM

## CC(C)Oc1ccc2ccccc2c1CNCCCCCCNCc1c(OC(C)C)ccc2ccccc12.CS(=O)(=O)O [TCMDC-137965]
[1]
  Tox50: 3.22 µM
[2]
  Selectivity ratio F: 1.26
  IC50: 2560 nM
[2]; [4]
  Average inhibition female (%): 48.8%
[2]; PfDGFA at 2µM, replicate R1
  % inhibition female (individual replicates) R1: 46.4%
[2]; PfDGFA at 2µM, replicate R3
  % inhibition female (individual replicates) R3: 51.5%
[2]; PfDGFA at 2µM, replicate R4
  % inhibition female (individual replicates) R4: 48.5%
[2]; 2µM
  HitlevelF: 1
[3]
  Selectivity Ratio M: 1.91
  IC50: 1690 nM
[3]; [4]
  Average inhibition male (%): 73.8%
[3]; PfDGFA at 2µM, replicate R1
  % inhibition male (individual replicates) R1: 86.0%
[3]; PfDGFA at 2µM, replicate R3
  % inhibition male (individual replicates) R3: 74.0%
[3]; PfDGFA at 2µM, replicate R4
  % inhibition male (individual replicates) R4: 91.3%
[3]; 2µM
  HitlevelM: 3
